Experimental data: patent publication US20200347136A1, “CONSTRAINED CYCLIC PEPTIDES AS INHIBITORS OF THE CD2:CD58 PROTEIN-PROTEIN INTERACTION FOR TREATMENT OF DISEASES AND AUTOIMMUNE DISORDERS” (Board of Supervisors for the University of Louisiana System, priority 2019, published 2020)
Numbered stars: 1 amine (or outer) side, 2 acyl side, 3 side chain; on linkers, the order of the positions; unused ones are H or OH. Bridge positions count the residues as written; N and C are the ends. Square brackets hold non-standard residues; d marks the D form. Peptide text beside a SMILES is read from it. βAla(3R-(1-naphthyl)) = O=C(C[C@@H](N[*:1])c1cccc2ccccc12)[*:2]; βAla(3S-(1-naphthyl)) = O=C(C[C@H](N[*:1])c1cccc2ccccc12)[*:2]; X1 = O=C(CCc1cccc2c1oc1c(CCN[*:1])cccc12)[*:2]

How the values were obtained:
Calu-3 xenograft tumors = experiment: Calu-3 xenograft model of lung cancer in nude mice; assay type: in vivo; conditions: Calu-3 xenograft; SFTI-G5 8 mg/kg intratumoral thrice a week; antibodies 12 then 6 mg/kg once a week
Procedure: 5×10^6 Calu-3 cells suspended in serum-free medium were subcutaneously inoculated in left flank region of mice to induce lung cancer (Foxn1-nude). Peptide (8 mg/kg) was administered via intratumoral injection three times a week after 10 days, Pertuzumab was injected with a loading dose of 12 mg/kg and then 6 mg/kg as maintenance dose intraperitonially once a week, Trastuzumab and pertuzumab combination was injected at a loading dose of 12 mg/kg and then 6 mg/kg as maintenance dose once a week. […] For comparison, pertuzumab (up triangle, blue) and trastuzumab and pertuzumab combination (down triangle, red) also shown (with standard errors for n=6). […] C) PPI inhibition assessed by PLA on tumor tissue sample. […] Tumor sections were homogenized, and protein was extracted and subjected to Western blot. […] (** p<0.01). Mean±SEM.
HER2 dimerization inhibitors such as pertuzumab and trastuzumab and pertuzumab combinations were also administered as control groups (FIG. 11A). […] During the course of the experiment, the tumor size in the control xenograft group without any treatment continued to increase, reaching a diameter of ˜9 mm in 28 days (FIG. 11B).
To evaluate the phosphorylation of HER2 protein, Western blot analysis was performed on frozen tumor samples.

MCF-7 cells = conditions: read-out: IC50 MCF-7 (HER2−); antiproliferative activity
Procedure: (§1) Antiproliferative activity of grafted cyclic peptides. Antiproliferative activity of the designed grafted peptides was evaluated in different HER2-overexpressing cancer cell lines as well as HER2 negative cancer cell lines.
(§2) Table 1. […] Single letter amino acid code was used for peptide sequence. Lower case letters refer to D amino acids and capital letters refer to L amino acids. Chirality of Anapa was indicated with R and S configuration in italics. Antiproliferative activity of peptides in cancer cell lines are given as IC50 in μM. Disulfide bonds between the cysteines are underlined.

BT-474 cells = conditions: for IC50: read-out: IC50 BT-474 (HER2+), antiproliferative activity
Procedure: as §1, §2

CD2:CD58 [1] = experiment: Cell adhesion inhibition IC50 (µM) | T cell-OVCAR-3
Procedure: (§3) Table printed on a drawing sheet, Fig. 5
Head of the field: Cell adhesion inhibition IC50 (µM) | T cell-OVCAR-3
(§4) Table of stable peptides designed based on sunflower trypsin inhibitor (SFTI) and their cell adhesion inhibition activities in a model system. OVCAR-3 and HFLS-RA cells express CD58. Jurkat T cells express CD2 protein. Inhibition of adhesion between Jurkat and OVCAR-3/HFLS-RA cells was evaluated. Cell adhesion inhibition is represented as IC50 value
(§5) First copying reader's note: In the SFTI sequences the stretch from the first C to the second C is underlined on the sheet; the ± error stands inside the IC50 cells.
(§6) Where the first naming reader finds the target: description_of_the_figure: OVCAR-3 and HFLS-RA cells express CD58. Jurkat T cells express CD2 protein. Inhibition of adhesion between Jurkat and OVCAR-3/HFLS-RA cells was evaluated.

CD2:CD58 [2] = experiment: Cell adhesion inhibition IC50 (µM) | T cell-HFLS-RA
Procedure: as §3
Head of the field: Cell adhesion inhibition IC50 (µM) | T cell-HFLS-RA
as §4, §5, §6

CD2:CD58 interaction = target: T1, CD2:CD58 interaction (Homo sapiens, UniProt P19256); experiment: cell adhesion inhibition between T cells (CD2) and epithelial cells (CD58), model systems; assay type: cell-based
T1 construct: Peptides were incubated with adherent cells that expressed CD58; endogenous in cells; host or cells: Jurkat T cells with OVCAR-3 or HFLS-RA cells
T1 sequence (P19256 29-250): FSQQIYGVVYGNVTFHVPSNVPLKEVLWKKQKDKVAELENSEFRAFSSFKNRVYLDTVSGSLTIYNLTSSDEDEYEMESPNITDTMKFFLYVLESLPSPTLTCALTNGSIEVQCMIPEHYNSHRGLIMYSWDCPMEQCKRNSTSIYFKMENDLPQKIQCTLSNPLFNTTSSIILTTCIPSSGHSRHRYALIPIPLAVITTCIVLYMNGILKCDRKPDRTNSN
Procedure: (§7) The ability of peptides to inhibit the CD2:CD58 protein-protein interaction was studied by evaluating the adhesion interaction between cells using model systems. […] The model systems we used included Jurkat and ovarian cancer (OVACR-3) cells and Jurkat and human fibroblast-like synoviocyte-rheumatoid arthritis (HFLS-RA) cells. Since OVCAR-3 cells and HFLS-RA cells express CD58, adhesion interactions between CD2 and CD58 can be studied using these model systems. Peptides were incubated with adherent cells that expressed CD58, and Jurkat cells were added to evaluate the adhesion. […] A broad range of concentrations (0.0005 to 200 μM) was used in the first screen and based on the inhibitory activity of the peptides in that concentration range, data points for a dose-response study were chosen. The concentration-response curves for the various peptides were obtained in the range of 0.0005 to 10 μM.

[3] = system: collagen-induced arthritis; conditions: cited from earlier work
[4] = system: CD2:CD58 interaction (SRBC expressing CD58 / Jurkat cells expressing CD2); experiment: E-rosetting assay, sheep red blood cells / Jurkat T cells; assay type: cell-based
Procedure: Peptides were added to AET-treated sheep red blood cells (SRBC) (expressing CD58 protein) first, and Jurkat cells (expressing CD2 protein) labeled with BCECF were added later. Cells with five or more SRBC bound were counted as rosettes. Values are percent inhibition of peptide-treated cells and are expressed as the mean of three experimental values. Error bars represent standard error of the mean (SEM).
The ability of peptides to inhibit cell adhesion was evaluated using E-rosetting assay via interaction between sheep red blood cells (SRBC) expressing CD58 and Jurkat T cells expressing CD2 protein. When these cells are incubated, they adhere to each other. Each Jurkat cell adheres to many sheep red blood cells. Five or more SRBC adhering to a Jurkat cell is counted as positive E-rosetting.

Calu-3 cells = conditions: read-out: IC50 Calu-3 (HER2+); antiproliferative activity
Procedure: as §1, §2

A549 cells = conditions: read-out: IC50 A549 (HER2+); antiproliferative activity
Procedure: as §1, §2

[5] = target: T2, CD2:CD58 interaction (Jurkat T cells / OVCAR-3 cells) (Homo sapiens, UniProt P19256); experiment: cell adhesion inhibition, Jurkat / OVCAR-3 cells; assay type: cell-based
T2 construct: CD2+ Jurkat T cells and CD58+ OVCAR-3 cells; endogenous in cells; host or cells: OVCAR-3 (CD58) and Jurkat (CD2)
T2 sequence (P19256 29-250): T1 sequence (P19256 29-250)
Procedure: as §7
(§8) Cell adhesion was also evaluated in a well-established E-rosetting assay. […] To evaluate the cell adhesion inhibitory activity of peptides from cells associated with autoimmune disease, we used HFLS-RA cells derived from RA patients.

[6] = target: T3, CD2:CD58 interaction (Jurkat T cells / HFLS-RA cells) (Homo sapiens, UniProt P19256); experiment: cell adhesion inhibition, Jurkat / HFLS-RA cells; assay type: cell-based
T3 construct: we used HFLS-RA cells derived from RA patients; endogenous in cells; host or cells: HFLS-RA (CD58) and Jurkat (CD2)
T3 sequence (P19256 29-250): T1 sequence (P19256 29-250)
Procedure: as §7, §8

pertuzumab: antibody known to bind HER2 ECD domain II and inhibit dimerization of EGFRs [reference compound]
tumor growth (Calu-3 xenograft tumors): significantly reduced tumor growth progression

N=C(N)NCCC[C@@H]1NC(=O)[C@H]2CCCN2C(=O)[C@@H]2CCCN2C(=O)[C@H](CCCNC(=N)N)NC(=O)C[C@H](c2cccc3ccccc23)NC(=O)[C@@H]2CSSC[C@H](NC(=O)C[C@H](c3cccc4ccccc34)NC1=O)C(=O)N[C@@H](Cc1ccccc1)C(=O)N[C@@H](Cc1ccccc1)C(=O)N2 [SFTI-G2, Cyclo(C(R-X)RPpR(R-X)CFF)] (cyclo(C[βAla(3R-(1-naphthyl))]RP[dP]R[βAla(3R-(1-naphthyl))]CFF); disulfide 1-8)
IC50 (MCF-7 cells): > 50 µM | IC50 (BT-474 cells): 5.23 ± 1.38 µM

Cyclo(CTKSIPPICFPDGR) (cyclic) [SFTI-wt (control)]
IC50 (CD2:CD58 [1]): > 50 µM | IC50 (CD2:CD58 [2]): > 50 µM

C[C@@H]1NC(=O)[C@@H]2CSSC[C@H](NC(=O)[C@H](CC(=O)O)NC(=O)[C@H](CC(=O)O)NC(=O)CNC(=O)[C@H](CC(=O)O)NC(=O)[C@H](Cc3ccc(O)cc3)NC1=O)C(=O)N[C@@H](CCCCN)C(=O)N[C@@H](CO)C(=O)N[C@@H](C)C(=O)N1CCC[C@H]1C(=O)N1CCC[C@H]1C(=O)N[C@@H](CO)C(=O)N2 [SFTI-a1] (cyclo(APPSCAYDGDDCKS); disulfide 5-12)
IC50 (CD2:CD58 interaction): 22 nM | IC50 (CD2:CD58 [2]): 0.0388 ± 0.0102 µM

CC[C@H](C)[C@@H]1NC(=O)[C@H](CO)NC(=O)[C@H](CC(=O)O)NC(=O)[C@H](Cc2ccccc2)NC(=O)[C@@H]2CSSC[C@H](NC(=O)[C@H](Cc3ccccc3)NC(=O)[C@H](CC(=O)O)NC1=O)C(=O)N[C@H](c1cccc3ccccc13)CC(=O)N[C@@H](CCCNC(=N)N)C(=O)N[C@@H](CC(=O)O)C(=O)N[C@@H](CCCNC(=N)N)C(=O)N[C@H](c1cccc3ccccc13)CC(=O)N2 [SFTI-G1, Cyclo(C(S-X)RDR(S-X)CFDSIDF)] (cyclo(C[βAla(3S-(1-naphthyl))]RDR[βAla(3S-(1-naphthyl))]CFDSIDF); disulfide 1-7)
IC50 (MCF-7 cells): > 50 µM | IC50 (BT-474 cells): 4.16 ± 0.179 µM

N=C(N)NCCC[C@@H]1NC(=O)[C@H]2CCCN2C(=O)[C@@H]2CCCN2C(=O)[C@H](CCCNC(=N)N)NC(=O)C[C@H](c2cccc3ccccc23)NC(=O)[C@H](Cc2ccccc2)NC(=O)[C@H](CC(=O)O)NC(=O)[C@H](CC(=O)O)NC(=O)[C@H](Cc2ccccc2)NC(=O)C[C@H](c2cccc3ccccc23)NC1=O [Compound 18, Cyclo(PpR(R-X)FDDF(R-X)R), reference compound] (cyclo(P[dP]R[βAla(3R-(1-naphthyl))]FDDF[βAla(3R-(1-naphthyl))]R))
IC50 (MCF-7 cells): > 50 µM

C[C@@H]1NC(=O)[C@H](CCCCN)NC(=O)[C@@H]2CSSC[C@H](NC(=O)[C@H](CO)NC(=O)[C@@H]3CCCN3C(=O)[C@@H]3CCCN3C(=O)[C@H](C)NC(=O)[C@H](CO)NC1=O)C(=O)N[C@@H](Cc1ccc(O)cc1)C(=O)N[C@@H](CC(=O)O)C(=O)NCC(=O)N[C@@H](CC(=O)O)C(=O)N[C@@H](CC(=O)O)C(=O)N2 [SFTI-a] (cyclo(APPSCYDGDDCKAS); disulfide 5-11)
IC50 (CD2:CD58 [1]): 0.043 ± 0.025 µM

N=C(N)NCCC[C@@H]1NC(=O)[C@@H]2CCCN2C(=O)[C@@H]2CCCN2C(=O)[C@H](CCCNC(=N)N)NC(=O)C[C@H](c2cccc3ccccc23)NC(=O)[C@@H]2CSSC[C@H](NC(=O)C[C@H](c3cccc4ccccc34)NC1=O)C(=O)N[C@@H](Cc1ccccc1)C(=O)N2 [SFTI-G3, Cyclo(C(R-X)RPPR(R-X)CF)] (cyclo(C[βAla(3R-(1-naphthyl))]RPPR[βAla(3R-(1-naphthyl))]CF); disulfide 1-8)
IC50 (MCF-7 cells): > 50 µM | IC50 (BT-474 cells): 3.65 ± 0.41 µM

CC[C@H](C)[C@@H]1NC(=O)[C@H](CCCNC(=N)N)NC(=O)C[C@H](c2cccc3ccccc23)NC(=O)[C@@H]2CSSC[C@H](NC(=O)C[C@H](c3cccc4ccccc34)NC(=O)[C@H](CCCNC(=N)N)NC(=O)[C@@H]3CCCN3C(=O)[C@@H]3CCCN3C1=O)C(=O)N[C@@H](Cc1ccccc1)C(=O)N1CCC[C@H]1C(=O)N[C@@H](CC(=O)O)C(=O)N[C@@H](CC(=O)O)C(=O)N[C@@H](Cc1ccccc1)C(=O)N2 [SFTI-G6, Cyclo(C(R-X)RIPPR(R-X)CFPDDF)]
IC50 (MCF-7 cells): > 50 µM | change of antiproliferative activity on altering Anapa chirality (S to R) (BT-474 cells; SFTI-G6 versus SFTI-G5): tenfold decrease | IC50 (BT-474 cells): 2.94 ± 1.06 µM

CC[C@H](C)[C@@H]1NC(=O)[C@H](CC(=O)O)NC(=O)[C@H](CC(=O)O)NC(=O)[C@@H]2CCCN2C(=O)[C@H]2CCCN2C(=O)[C@H](CC(=O)O)NC(=O)[C@H](Cc2ccc(O)cc2)NC(=O)[C@H]([C@@H](C)CC)NC(=O)[C@H](CO)NC(=O)[C@H](CCCCN)NC1=O [Peptide 6, Cyclo(SIYDpPDDIK)]
histopathology of paws ([3]; 0.5 mg/kg): clear joint space with normal cartilage interface | anti-CII antibodies in sera ([3]; 0.5 and 1 mg/kg i.v.): dose-dependent reduction | acute clinical signs of illness / direct toxicity ([3]; DBA/1 mice, during dosing): minimal, if any, direct toxicity | IC50 [4]: 9.4 ± 0.3 nM

CC[C@H](C)[C@@H]1NC(=O)[C@H](CO)NC(=O)[C@H](CC(=O)O)NC(=O)[C@H](Cc2ccccc2)NC(=O)[C@@H]2CSSC[C@H](NC(=O)[C@H](Cc3ccccc3)NC(=O)[C@H](CC(=O)O)NC(=O)[C@@H]3CCCN3C(=O)[C@@H]3CCCN3C1=O)C(=O)N[C@H](c1cccc3ccccc13)CC(=O)N[C@@H](CCCNC(=N)N)C(=O)N1CCC[C@H]1C(=O)NCC(=O)N[C@@H](CCCNC(=N)N)C(=O)N[C@H](c1cccc3ccccc13)CC(=O)N2 [SFTI-G4] (cyclo(C[βAla(3S-(1-naphthyl))]RPGR[βAla(3S-(1-naphthyl))]CFDSIPPDF); disulfide 1-8)
IC50 (MCF-7 cells): > 30 µM | IC50 (BT-474 cells): 17.2 ± 1.03 µM

CC[C@H](C)[C@@H]1NC(=O)[C@H](C)NC(=O)C[C@@H](c2cccc3ccccc23)NC(=O)[C@@H]2CSSC[C@H](NC(=O)C[C@@H](c3cccc4ccccc34)NC(=O)[C@H](C)NC(=O)[C@@H]3CCCN3C(=O)[C@@H]3CCCN3C1=O)C(=O)N[C@@H](C)C(=O)N1CCC[C@H]1C(=O)N[C@@H](CC(=O)O)C(=O)N[C@@H](C)C(=O)N[C@@H](Cc1ccccc1)C(=O)N2 [Control-G, Cyclo(C(S-X)AIPPA(S-X)CAPDAF), reference compound] (cyclo(AFC[βAla(3S-(1-naphthyl))]AIPPA[βAla(3S-(1-naphthyl))]CAPD); disulfide 3-11)
IC50 (Calu-3 cells): > 50 µM | IC50 (MCF-7 cells): > 50 µM | IC50 (A549 cells): > 50 µM | IC50 (BT-474 cells): > 50 µM

C[C@@H]1NC(=O)[C@@H]2CSSC[C@H](NC(=O)[C@H](CC(=O)O)NC(=O)[C@H](CC(=O)O)NC(=O)CNC(=O)[C@H](CC(=O)O)NC(=O)[C@H](Cc3ccc(O)cc3)NC1=O)C(=O)N[C@@H](CCCCN)C(=O)N[C@@H](CO)C(=O)N[C@@H](C)C(=O)NCCc1cccc3c1Oc1c(cccc1-3)CCC(=O)N[C@@H](CO)C(=O)N2 [SFTI-DBF] (cyclo(AYDGDDCKSA[X1]SC); disulfide 7-13)
IC50 [5]: 0.61 nM | IC50 [6]: 3 nM
